Measured values from patent publication US12215118B2, “Quinone methide analog signal amplification” (Ventana Medical Systems, Inc., priority 2014, dated 2025).

Assays:
[1] = system: Bcl2 on FFPE tonsil tissue; assay: HRP DAB amplified by QMP-biotin with different linkers; conditions: 100 nM, CHES pH 10.0, different linkers
Protocol: The tissue was deparaffinized and retrieved as described in the general procedures. Mouse-anti-Bcl-2 antibody incubation (37° C., 16 minutes) and washing were followed by secondary antibody incubation with a goat polyclonal anti-mouse antibody conjugated to AP (37° C.; 12 minutes). After incubating with the AP conjugate the slides were washed with Special Stains wash. Monofluoro QMP-biotin (with aniline amide (FIG. 23(A)), benzoic amide (FIG. 23(B)) or tyramide amide linker (FIG. 23(C)) (100 nM) was dissolved in 100 mM CHES, pH 10.0, 0.05% Brij-35 to a final concentration of 100 nM. QMP turnover was achieved by adding 100 μL of AP Enhancer followed by 100 μL of biotin labeled QMP and incubating at 37° C. for 16 minutes. The deposited biotin was subsequently bound by a streptavidin-HRP conjugate (37° C.; 8 minutes), and visualized via a brown precipitate produced by HRP upon the addition of hydrogen peroxide and DAB (37° C.; 8 minutes). The DAB was toned by the addition of copper sulfate (37° C.; 4 minutes). The stained tissue sections were counterstained with modified Mayer's hematoxylin (37° C.; 4 minutes) and then incubated with Bluing Reagent (37° C.; 4 minutes). They were then dehydrated through a graded ethanol series, cleared with xylene, and manually cover-slipped.

[2] = system: alkaline phosphatase (AP); assay: Trapping of the QM intermediate with Tris in solution, HPLC-MS; format: biochemical; conditions: pH 10 Tris buffer
Protocol: To probe the mechanism of staining and quenching, an attempt was made to trap the QM intermediate formed by monofluoro QM precursor 7 in solution-phase under similar conditions to those utilized in the staining experiments (FIG. 26). QM precursor 7 was dissolved in pH 10 Tris buffer followed by addition of a catalytic amount of AP. The reaction progress was monitored by HPLC-MS (FIG. 27, panels A-C). Within 10 minutes, complete conversion to the Tris adduct 7-tris was observed (panel C).

[3] = system: BCL6 on FFPE tonsil tissue; assay: AP-based CARD IHC with biotinylated QM precursor followed by DAB detection
Protocol: Detection 1—HRP DAB. After incubating with the AP conjugate the slides were washed with Special Stains wash (VMSI #860-015). QMP reagents were dissolved in 100 mM CHES (3-cyclo-hexylamino-ethylsulfonic acid), pH 10.0, 0.05% Brij-35. QMP turnover was achieved by adding 100 μL of AP Enhancer (VMSI #253-2182) followed by 100 μL of hapten labeled QMP and incubating at 37° C. for 16 minutes. Compound 29 is an exemplary hapten-QMP that could be used according to this method. The deposited hapten was subsequently bound by a mouse-anti-hapten-HRP conjugate (or streptavidin-HRP) (37° C.; 8 minutes), and visualized via a brown precipitate produced by HRP upon the addition of hydrogen peroxide and DAB (37° C.; 8 minutes). The DAB was toned by the addition of copper sulfate (37° C.; 4 minutes). The stained tissue sections were counterstained with modified Mayer's hematoxylin (Hematoxylin II, VMSI #790-2208) (37° C.; 4 minutes) and then incubated with Bluing Reagent (VMSI #760-2037) (37° C.; 4 minutes). The slides were then dehydrated through a graded ethanol series, cleared with xylene, and manually cover-slipped.
Both compounds utilize fluoride as the leaving group, but the reactivity of the QM derived from difluoro compound 58 should be considerably lower than monofluoro 7 due to the electronic stabilization offered by the geminal fluorine atom. […] Therefore, the difluoro QM precursor compound 58 was evaluated first for IHC staining performance on FFPE tissue using the nuclear marker BCL6 on FFPE tonsil tissue as a model system. The biotin-labeled difluoro QM precursor successfully bound to the sample as evidenced by subsequent biotin visualization using diaminobenzidine (DAB) detection. FIG. 18 provides microphotographs illustrating the detection level at varying concentrations of the difluoro QM precursor in a Tris buffer at pH=8.5 (panel A—DAB control, panel B—1 μM, panel C—10 μM and panel D—20 μM). In addition, significant amplification of signal was observed compared to the DAB control sample when on-slide concentrations of difluoro QM precursor compound 58 greater than […] were utilized.
To test the effect of pH on signal diffusion, difluoro QM precursor compound 58 was deposited as before at various pH levels within the working range for AP (7-12 with two shoulders of maximal activity at pH=8.5 and 11). The nuclear marker BCL6 on FFPE tonsil tissue was again chosen as the model. Positive staining was observed across the entire pH range, although a balance between overall signal and diffusion was seen. FIG. 19, panels A-H provide microphotographs of the detection levels of 20 µM QM precursor in Tris buffer with varying pH: panel A—DAB control; panel B pH=7.0; panel C pH=8.0; panel D pH=8.5; panel E pH=9.0; panel F pH=10.0; panel G pH=11.0; panel H pH=12.0. The diffusion appears to decrease with increasing pH. […] The level of amplification increased only as the pH rose to 8.5 and then decreased gradually over the rest of the range. This effect may be due to a combination of enzyme activity and the population of QM quenchers in the reaction media. At pH levels well below the optimal AP reaction conditions (7.0), the activity of AP was depressed, resulting in low signal. As the pH increased (8.0-8.5) but remained near the pKa of Tris (8.1), the activity of AP increased at a faster rate than the population of quenchers in the reaction media, leading to a significant increase in signal. Raising the pH further (9-10) increased the quencher population while decreasing AP activity, resulting in a decrease of signal. Although AP had maximal activity at pH 11 in Tris, a slight decrease in staining intensity was observed, most likely due to the excessively high population of quenchers that could not be overcome by the increased AP activity (raising the pH from 8.5 to 11 increases [Tris base] about 50%, with AP activity increasing by only about 20%). […]

| Compound | signal resolution [1] | time to complete conversion to the Tris adduct ([2]; catalytic amount of AP) [min] | reaction in the absence of AP ([2]; no AP) | diffusion and off-target staining ([3]; 250 nM, Tris buffer, pH of 10) | concentration required to give the desired level of amplification ([3]; pH 8.5 in Tris buffer) [nM] | overall diffusion compared to difluoro QM precursor 58 ([3]; pH 8.5 in Tris buffer) |
| --- | --- | --- | --- | --- | --- | --- |
| O=C(CCCCC1SCC2NC(=O)NC21)NCCCCCC(=O)Nc1ccc(OP(=O)(O)O)c(CF)c1 (centres unmarked) [Compound 7, 2-(fluoromethyl)-4-(6-(5-(2-oxohexahydro-1H-thieno[3,4-d]imidazol-4-yl)pentanamido)hexanamido)phenyl dihydrogen phosphate] | well resolved signals | ≤ 10 | no reaction took place | nearly eliminated | 250 | greatly reduced |
| O=C(CCCCC1SCC2NC(=O)NC21)NCCc1ccc(OP(=O)(O)O)c(CF)c1 (centres unmarked) [Compound 14, 2-(fluoromethyl)-4-(2-(5-(2-oxohexahydro-1H-thieno[3,4-d]imidazol-4-yl)pentanamido)ethyl)phenyl dihydrogen phosphate] | well resolved signals | – | – | – | – | – |
| O=C(CCCCC1SCC2NC(=O)NC21)NCCCCCNC(=O)c1ccc(OP(=O)(O)O)c(CF)c1 (centres unmarked) [Compound 21, 2-(fluoromethyl)-4-((5-(5-(2-oxohexahydro-1H-thieno[3,4-d]imidazol-4-yl)pentanamido)pentyl)carbamoyl)phenyl dihydrogen phosphate] | more diffuse, less resolved signal | – | – | – | – | – |
